Test results: patent publication US11312706B2, “Cyclohexyl acid pyrazole azines as LPA antagonists” (BRISTOL-MYERS SQUIBB COMPANY, priority 2017, dated 2022)

Target: T1, human LPA1 (Homo sapiens, UniProt Q92633)
T1 construct: expressed in transfected cells; host or cells: Chinese hamster ovary (CHO) cells
Test: LPA1 functional antagonist assay (LPA-induced calcium flux)
Type: cell-based
Conditions: CHO cells overexpressing human LPA1, 10 nM LPA, read-out: hLPA1 IC50
Experimental: The effectiveness of compounds of the present invention as LPA1 inhibitors can be determined in an LPA1 functional antagonist assay as follows:
Chinese hamster ovary cells overexpressing human LPA1 were plated overnight (15,000 cells/well) in poly-D-lysine coated 384-well microplates (Greiner bio-one, Cat #781946) in DMEM/F12 medium (Gibco, Cat #11039). Following overnight culture, cells were loaded with calcium indicator dye (AAT Bioquest Inc, Cat #34601) for 30 minutes at 37° C. The cells were then equilibrated to room temperature for 30 minutes before the assay. Test compounds solubilized in DMSO were transferred to 384 well non-binding surface plates (Corning, Cat #3575) using the Labcyte Echo acoustic dispense and diluted with assay buffer [1×HBSS with calcium/magnesium (Gibco Cat #14025-092), 20 mM HEPES (Gibco Cat #15630-080) and 0.1% fatty acid free BSA (Sigma Cat #A9205)] to a final concentration of 0.5% DMSO. Diluted compounds were added to the cells by FDSS6000 (Hamamatsu) at final concentrations ranging from 0.08 nM to 5 μM. and were then incubated for 20 min at room temperature at which time LPA (Avanti Polar Lipids Cat #857130C) was added at final concentrations of 10 nM to stimulate the cells. The compound IC50 value was defined as the concentration of test compound which inhibited 50% of the calcium flux induced by LPA alone. IC50 values were determined by fitting data to a 4-parameter logistic equation (GraphPad Prism, San Diego Calif.).

T1 sequence (Q92633 whole entry): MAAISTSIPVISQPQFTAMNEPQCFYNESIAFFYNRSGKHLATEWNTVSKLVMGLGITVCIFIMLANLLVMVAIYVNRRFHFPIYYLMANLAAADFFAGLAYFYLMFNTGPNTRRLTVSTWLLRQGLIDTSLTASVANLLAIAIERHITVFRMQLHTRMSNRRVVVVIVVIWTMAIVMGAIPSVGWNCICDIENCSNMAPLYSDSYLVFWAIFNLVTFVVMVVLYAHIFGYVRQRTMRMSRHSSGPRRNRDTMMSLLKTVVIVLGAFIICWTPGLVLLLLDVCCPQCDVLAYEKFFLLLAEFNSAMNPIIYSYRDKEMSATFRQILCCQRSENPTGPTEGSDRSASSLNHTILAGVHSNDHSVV

Structure (SMILES) | IC50
Cn1ncc(-c2ccc(O[C@H]3CCC[C@H](C(=O)O)C3)cn2)c1CNc1nccc(-c2ccccc2)n1 (relative stereo) [Example 1, Trans-3-((6-(1-methyl-5-(((4-phenylpyrimidin-2-yl)amino)methyl)-1H-pyrazol-4-yl)pyridin-3-yl)oxy)cyclohexane-1-carboxylic acid] | 122 nM
Cn1ncc(-c2ccc(O[C@H]3CCC[C@H](C(=O)O)C3)cn2)c1COc1cccc(-c2ccccc2)c1 (relative stereo) [Example 30, Trans-3-((6-(5-(([1,1′-biphenyl]-3-yloxy)methyl)-1-methyl-1H-pyrazol-4-yl)pyridin-3-yl)oxy)cyclohexane-1-carboxylicacid] | 104 nM
Cc1nc(-c2cnn(C)c2CNc2nccc(-c3ccccc3)n2)ccc1O[C@H]1CCC[C@H](C(=O)O)C1 [Example 4, (1S,3S)-3-((2-methyl-6-(1-methyl-5-(((4-phenylpyrimidin-2-yl)amino)methyl)-1H-pyrazol-4-yl)pyridin-3-yl)oxy)cyclohexanecarboxylic acid] | 54 nM
Cc1cc(-c2ccccn2)nc(NCc2c(-c3ccc(O[C@H]4CCC[C@H](C(=O)O)C4)c(C)n3)cnn2C)n1 [Example 5, (1S,3S)-3-((2-methyl-6-(1-methyl-5-(((4-methyl-6-(pyridin-2-yl)pyrimidin-2-yl)amino)methyl)-1H-pyrazol-4-yl)pyridin-3-yl)oxy)cyclohexanecarboxylic acid] | 217 nM
COc1ccnc(NCc2c(-c3ncc(O[C@H]4CCC[C@H](C(=O)O)C4)c(C)n3)cnn2C)n1 [Example 6, (1S,3S)-3-((2-(5-(((4-methoxy-pyrimidin-2-yl)amino)methyl)-1-methyl-1H-pyrazol-4-yl)-4-methylpyrimidin-5-yl)oxy)cyclohexane-1-carboxylic acid] | 74 nM
Cc1nc(-c2cnn(C)c2CNc2nccc(C(C)C)n2)ncc1O[C@H]1CCC[C@H](C(=O)O)C1 [Example 10, (1S,3S)-3-((2-(5-(((4-isopropyl-pyrimidin-2-yl)amino)methyl)-1-methyl-1H-pyrazol-4-yl)-4-methyl-pyrimidin-5-yl)oxy)cyclohexane carboxylic acid] | 47 nM
Cc1nc(-c2cnn(C)c2CNc2nccc(C(C)(C)C)n2)ncc1O[C@H]1CCC[C@H](C(=O)O)C1 [Example 11, (1S,3S)-3-((2-(5-(((4-(tert-butyl)pyrimidin-2-yl)amino)methyl)-1-methyl-1H-pyrazol-4-yl)-4-methyl-pyrimidin-5-yl)oxy)cyclohexane carboxylic acid] | 50 nM
Cc1nc(-c2cnn(C)c2CNc2nccc(C3CC3)n2)ncc1O[C@H]1CCC[C@H](C(=O)O)C1 [Example 12, (1S,3S)-3-((2-(5-(((4-cyclopropyl-pyrimidin-2-yl)amino)methyl)-1-methyl-1H-pyrazol-4-yl)-4-methyl-pyrimidin-5-yl)oxy)cyclohexane-1-carboxylic acid] | 172 nM
Cc1nc(-c2cnn(C)c2CNc2ncnc(C3CCCC3)n2)ncc1O[C@H]1CCC[C@H](C(=O)O)C1 [Example 15, (1S,3S)-3-((2-(5-(((4-cyclopenty1-1,3,5-triazin-2-yl)amino)methyl)-1-methyl-1H-pyrazol-4-yl)-4-methylpyrimidin-5-yl)oxy)cyclohexane carboxylic acid] | 148 nM
Cc1nc(-c2cnn(C)c2CNc2nccc(-c3ccccn3)n2)ncc1O[C@H]1CCC[C@H](C(=O)O)C1 [Example 17, (1S,3S)-3-((4-methyl-2-(1-methyl-5-(((4-(pyridin-2-yl)pyrimidin-2-yl)amino)methyl)-1H-pyrazol-4-yl)pyrimidin-5-yl)oxy)cyclohexane-1-carboxylic acid] | 79 nM
Cc1nc(-c2cnn(C)c2Nc2nccc(OC(C)C)n2)ncc1O[C@H]1CCC[C@H](C(=O)O)C1 [Example 18, (S,3S)-3-((2-(5-((4-isopropoxypyrimidin-2-yl)amino)-1-methyl-1H-pyrazol-4-yl)-4-methyl-pyrimidin-5-yl)oxy)cyclohexane-1-carboxylic acid] | 1010 nM
CCCc1ccnc(Nc2c(-c3ncc(O[C@H]4CCC[C@H](C(=O)O)C4)c(C)n3)cnn2C)n1 [Example 19, (1S,3S)-3-((4-methyl-2-(1-methyl-5-((4-propylpyrimidin-2-yl)amino)-1H-pyrazol-4-yl)pyrimidin-5-yl)oxy)cyclohexane-1-carboxylic acid] | 1410 nM
CCCOc1ccnc(Nc2c(-c3ncc(O[C@H]4CCC[C@H](C(=O)O)C4)c(C)n3)cnn2C)n1 [Example 20, (1S,3S)-3-((4-methyl-2-(1-methyl-5-((4-propoxypyrimidin-2-yl)amino)-1H-pyrazol-4-yl)pyrimidin-5-yl)oxy)cyclohexane-1-carboxylic acid] | 1230 nM
CCc1nc(-c2cnn(C)c2CNc2nccc(OC)n2)ncc1O[C@H]1CCC[C@H](C(=O)O)C1 [Example 24, (1S,3S)-3-((4-ethyl-2-(5-(((4-methoxypyrimidin-2-yl)amino)methyl)-1-methyl-1H-pyrazol-4-yl)pyrimidin-5-yl)oxy)cyclohexane-1-carboxylic acid] | 350 nM

Stronger by IC50, values ahead:

IC50 | Structure (SMILES)
29 nM | Cc1nc(-c2cnn(C)c2CNc2nccc(OC(C)C)n2)ncc1O[C@H]1CCC[C@H](C(=O)O)C1 [Example 2, (1S,3S)-3-((2-(5-(((4-Isopropoxypyrimidin-2-yl)amino)methyl)-1-methyl-1H-pyrazol-4-yl)-4-methylpyrimidin-5-yl)oxy)cyclohexane-1-carboxylic acid]
22 nM | CCOc1ccnc(NCc2c(-c3ncc(O[C@H]4CCC[C@H](C(=O)O)C4)c(C)n3)cnn2C)n1 [Example 3, (1S,3S)-3-((2-(5-(((4-ethoxypyrimidin-2-yl)amino)methyl)-1-methyl-1H-pyrazol-4-yl)-4-methyl-pyrimidin-5-yl)oxy)cyclohexane-1-carboxylic acid]
22 nM | Cc1nc(-c2cnn(C)c2CNc2nccc(OC3CC3)n2)ncc1O[C@H]1CCC[C@H](C(=O)O)C1 [Example 7, (1S,3S)-3-((2-(5-(((4-cyclopropoxy-pyrimidin-2-yl)amino)methyl)-1-methyl-1H-pyrazol-4-yl)-4-methylpyrimidin-5-yl)oxy)cyclohexane-1-carboxylic acid]
33 nM | Cc1nc(-c2cnn(C)c2CNc2nccc(OCC(C)(F)F)n2)ncc1O[C@H]1CCC[C@H](C(=O)O)C1 [Example 8, (1S,3S)-3-((2-(5-(((4-(2,2-difluoro-propoxy)pyrimidin-2-yl)amino)methyl)-1-methyl-1H-pyrazol-4-yl)-4-methylpyrimidin-5-yl)oxy)cyclo-hexane-1-carboxylic acid]
32 nM | Cc1nc(-c2cnn(C)c2CNc2nccc(Oc3ccccc3)n2)ncc1O[C@H]1CCC[C@H](C(=O)O)C1 [Example 9, (1S,3S)-3((4-methyl-2-(1-methyl-5-(((4-phenoxypyrimidin-2-yl)amino)-methyl)-1H-pyrazol-4-yl)pyrimidin-5-yl)oxy)cyclohexane-1-carboxylic acid]
33 nM | Cc1nc(-c2cnn(C)c2CNc2nccc(-c3ccccc3)n2)ncc1O[C@H]1CCC[C@H](C(=O)O)C1 [Example 13, (1S,3S)-3-((4-methyl-2-(1-methyl-5-(((4-phenylpyrimidin-2-yl)amino)methyl)-1H-pyrazol-4-yl)pyrimidin-5-yl)oxy)cyclohexanecarboxylic acid]
12 nM | Cc1nc(-c2cnn(C)c2CNc2nccc(OCC(F)(F)F)n2)ncc1O[C@H]1CCC[C@H](C(=O)O)C1 [Example 16, (1S,3S)-3-((4-methyl-2-(1-methyl-5-(((4-(2,2,2-trifluoroethoxy)pyrimidin-2-yl)amino)methyl)-1H-pyrazol-4-yl)pyrimidin-5-yl)oxy)cyclohexane-1-carboxylic acid]
5 nM | CCOc1ccnc(NCc2c(-c3ncc(O[C@H]4CCC[C@H](C(=O)O)C4)c(CC)n3)cnn2C)n1 [Example 21, (1S,3S)-3-((2-(5-(((4-ethoxypyrimidin-2-yl)amino)methyl)-1-methyl-1H-pyrazol-4-yl)-4-ethylpyrimidin-5-yl)oxy)cyclohexane-1-carboxylicacid]
7 nM | CCc1nc(-c2cnn(C)c2CNc2nccc(OC3CC3)n2)ncc1O[C@H]1CCC[C@H](C(=O)O)C1 [Example 22, (1S,3S)-3-((2-(5-(((4-cyclopropoxy-pyrimidin-2-yl)amino)methyl)-1-methyl-1H-pyrazol-4-yl)-4-ethylpyrimidin-5-yl)oxy)cyclohexane-1-carboxylic acid]
2 nM | CCCOc1ccnc(NCc2c(-c3ncc(O[C@H]4CCC[C@H](C(=O)O)C4)c(CC)n3)cnn2C)n1 [Example 23, (1S,3S)-3-((4-ethyl-2-(1-methyl-5-(((4-propoxypyrimidin-2-yl)amino)methyl)-1H-pyrazol-4-yl)pyrimidin-5-yl)oxy) cyclohexane-1-carboxylic acid]
18 nM | CCc1nc(-c2cnn(C)c2CNc2nccc(OCCCF)n2)ncc1O[C@H]1CCC[C@H](C(=O)O)C1 [Example 25, (1S,3S)-3-((4-ethyl-2-(5-(((4-(3-fluoropropoxy)pyrimidin-2-yl)amino)methyl)-1-methyl-1H-pyrazol-4-yl)pyrimidin-5-yl)oxy)cyclohexane-1-carboxylic acid]
15 nM | CCc1nc(-c2cnn(C)c2CNc2nccc(OCC(C)(F)F)n2)ncc1O[C@H]1CCC[C@H](C(=O)O)C1 [Example 26]
